Measurements reported in patent US20030044797A1, “Detection of CYP2D6 polymorphisms” (priority 2000, published 2003).

Tested on: CYP2D6 enzyme
Test: debrisoquine metabolic ratio (MR) phenotyping of study participants, correlated with CYP2D6 5′ flanking region haplotypes
Format: in vivo, human
Procedure: The study was performed in accordance with the principles stated in the Declaration of Helsinki as reviewed in Tokyo 1975 and Venice 1983, Hong Kong 1989 and Somerset West 1996. Subjects were preferably not related to each other. Based on questioning, individuals having one of the following were excluded: a medical condition judged to influence liver function or requiring pharmacological treatment; any on-going disease; intake of any drug, except oral contraceptives, during one week prior to the study; breast-feeding or pregnancy. No physical examination was performed. For these experiments, a single oral dose of 10 mg debrisoquine (Declinax, Hoffman-LaRoche) was taken in the evening before bed-time. The bladder was emptied before drug intake. All urine was then collected overnight (about 8 hours) A single blood sample was collected 3 hours after drug intake.
White blood cells isolated from a blood sample drawn from the brachial vein serve as the source of the genomic DNA for the analyses. The DNA was extracted by guanidine thiocyanate method or QlAamp Blood Kit (QIAGEN, Venlo, The Netherlands). The genes included in the study were amplified by PCR and the DNA sequences were determined by the technology most suitable for the specific fragment. […] Case Report Forms were designed and used for clinical and genetic data collection. Data was entered and stored in a relational database at Gemini Genomics AB, Uppsala. To secure consistency between the Case Report Forms and the database, data was checked either by double data entry or proofreading. After a Clean File was declared the database was protected against changes. By using the program Stat/Transfer™ the database was transferred to SAS data sets. The SAS™ system was used for tabulations and statistical evaluations. Genotypes and haplotypes were correlated against the metabolic ratio.
This analysis was performed using software based on maximum likelihood methodology and using the EM algorithm of Excoffier et al. (1995), Mol Biol Evol. 12:921-927. […] From the haplotype information two different kinds of variables were created: one variable was formed as a haplotype combination variable (HTYPE). This variable has the value H1/H2 when the subject has haplotypes 1 and 2, etc. Variables H1, H2, H3 and H4 are haplotype annotations that denote the number of copies of that particular haplotype for the subject, e.g., for a subject with haplotype H1/H2 the variables H1, H2, H3 and H4 will be 1, 1, 0 and 0, respectively. Each of these variables can thus take on the values 0, 1 or 2. Only the four most frequent haplotypes were considered when those variables were formed.

MR-range (min-max) (HTYPE H1/H1): 0.03-110
MR (Debr), predicted metabolic ratio (HTYPE H1/H1, 89% (49/55) in MR-range): <0.8
MR-range (min-max) (HTYPE H1/H2): 0.06-1.04
MR (Debr), predicted metabolic ratio (HTYPE H1/H2, 81% (52/64) in MR-range): <0.4
MR-range (min-max) (HTYPE H1/H3): 0.08-2.40
MR (Debr), predicted metabolic ratio (HTYPE H1/H3, 74% (14/19) in MR-range): 0.4-2.0
MR-range (min-max) (HTYPE H1/H4): 0.18-143
MR (Debr), predicted metabolic ratio (HTYPE H1/H4, 74% (20/27) in MR-range): 0.4-7.0
MR-range (min-max) (HTYPE H2/H2): 0.13-1.44
MR (Debr), predicted metabolic ratio (HTYPE H2/H2, 89% (17/19) in MR-range): <0.8
MR-range (min-max) (HTYPE H2/H3): 0.13-2.29
MR (Debr), predicted metabolic ratio (HTYPE H2/H3, 86% (6/7) in MR-range): 0.2-7.0
MR-range (min-max) (HTYPE H2/H4): 0.33-3.70
MR (Debr), predicted metabolic ratio (HTYPE H2/H4, 82% (14/17) in MR-range): 0.4-2.0
MR-range (min-max) (HTYPE H3/H3): 0.85-5.17
MR (Debr), predicted metabolic ratio (HTYPE H3/H3, 100% (3/3) in MR-range): 0.8-7.0
MR-range (min-max) (HTYPE H3/H4): 1.46-6.54
MR (Debr), predicted metabolic ratio (HTYPE H3/H4, 100% (5/5) in MR-range): 0.8-7.0
MR-range (min-max) (HTYPE H4/H4): 26.3-236
MR (Debr), predicted metabolic ratio (HTYPE H4/H4, 100% (16/16) in MR-range): >12.6
mr50 (metabolic ratio of the 50th percentile) (haplotype H1/H1, n = 53, single oral dose 10 mg debrisoquine): mr50 = 0.22
mr50 (metabolic ratio of the 50th percentile) (haplotype H1/—, n = 108): mr50 = 0.375
mr50 (metabolic ratio of the 50th percentile) (haplotype H2/H2, n = 19): mr50 = 0.3
mr50 (metabolic ratio of the 50th percentile) (haplotype H2/—, n = 88): mr50 = 0.335
mr50 (metabolic ratio of the 50th percentile) (haplotype H3/H3, n = 3): mr50 = 2.08
mr50 (metabolic ratio of the 50th percentile) (haplotype H3/—, n = 31): mr50 = 0.64
mr50 (metabolic ratio of the 50th percentile) (haplotype H4/H4, n = 16): mr50 = 88
mr50 (metabolic ratio of the 50th percentile) (haplotype H4/—, n = 49): mr50 = 0.86
mr50 (metabolic ratio of the 50th percentile) (no H1 copy (—/—), n = 71): mr50 = 0.87
mr50 (metabolic ratio of the 50th percentile) (no H2 copy (—/—), n = 125): mr50 = 0.56
mr50 (metabolic ratio of the 50th percentile) (no H3 copy (—/—), n = 198): mr50 = 0.34
mr50 (metabolic ratio of the 50th percentile) (no H4 copy (—/—), n = 167): mr50 = 0.27
Compound: N=C(N)N1CCc2ccccc2C1 [debrisoquine]
